Reference: US4757061A, “4-amino androstendione derivatives and process for their preparation” (Farmitalia Carlo Erba, S.p.A., priority 1985, dated 1988)

Columns and labels:
[1] = cited from earlier work
[2] = tested on: rat ovarian aromatase; experiment: Aromatase inhibition in vivo in rats (ovarian aromatase activity); settings: for % Aromatase inhibition at 30 mg/kg p.o.: PMSG-treated adult female rats, ovaries taken 24 hours later; for In vivo effectiveness by oral route: 30 mg/kg
Description: The aromatase inhibitors for formula (I) can find also use in the control of reproduction: indeed a decrease in oestrogen levels in vivo results in gonad-inhibiting activity and in insufficient uterine development; aromatase inhibitors may be at the same time implantation inhibitors. Another application of the compounds of the invention is in the treatment of prostatic hypertrophy or hyperplasia, related to an excessive oestrogen production and the shifting of the oestrogen/androgen ratio to higher values. Furthermore, the compounds of the invention, producing decrease in estradiol formation, may be useful for the treatment of male fertility disturbances (Drugs 28: 263, 1984). […] Accordingly, decreased estradiol formation, as can be obtained through administration of the compounds of the invention, leads to an improvement of both sperm count and fertility, in patients with infertility due to oligozoospermia. Aromatase inhibition by the compounds of the present invention was determined, e.g., both in vitro (human placental aromatase) and in vivo (ovarian aromatase activity) in rats.
(§1) The enzyme system was isolated from the microsomal fraction of human placental tissue according to standard procedure. The assay of Thompson and Siiteri [E. A. Thompson and P. K. Siiteri, J. Biol. Chem. 249, 5364, (1974)] which determines the rate of aromatization as measured by the liberation of ^3 H2 O from 4-[1β,2β-^3 H] androsten-3,17-dione was used. All incubations were carried out in a shaking water bath at 37° C. in air in 10 mM potassium phosphate buffer, pH 7.5, which contained 100 mM KCl, 1 mM EDA and 1 mM dithiothreitol. The experiments were carried out in 1 ml incubation volume containing 50 nM 4-[…], various concentrations of the inhibitors, 100 μM NADPH and 0.05 mg of microsomal proteins. After 15 minutes of incubation the reaction was stopped by the addition of chloroform (5 ml). After centrifugation at 1500×g for 5 minutes, aliquots (0.5 ml) were removed from the water phase for determination of ^3 H2 O formed. The concentration of each compound required to reduce control aromatase by 50% (IC50) was determined by plotting % inhibition versus log of inhibitor concentration. The relative potency of each compound versus 4 OH-A was calculated according to the relation: [formula] (b) Aromatase inhibition in vivo in rats Adult female rats were twice treated subcutaneously with 100 I.U. pregnant mares' serum gonadotropin (PMSG) at 4 days' interval, in order to increase ovarian aromatase activity, according to Brodie's procedure [A. M. H. Brodie et al., Steroids 38, 693, (1981)]. Three days after the second PMSG treatment, groups of 6 animals each were given orally the vehicle (0.5% methocel) or the inhibitor at 30 mg/kg. Animals were killed 24 hours later, microsomes were isolated from ovaries and their aromatase activity determined using a method similar to that described in (a).

[3] = biological target: T1, human placental aromatase (Homo sapiens, UniProt P11511); experiment: Aromatase inhibition in vitro (human placental aromatase, 3H2O release assay); type: biochemical
T1 construct: The enzyme system was isolated from the microsomal fraction of human placental tissue; from tissue; host or cells: human placental tissue, microsomal fraction
T1 sequence (P11511 1-503): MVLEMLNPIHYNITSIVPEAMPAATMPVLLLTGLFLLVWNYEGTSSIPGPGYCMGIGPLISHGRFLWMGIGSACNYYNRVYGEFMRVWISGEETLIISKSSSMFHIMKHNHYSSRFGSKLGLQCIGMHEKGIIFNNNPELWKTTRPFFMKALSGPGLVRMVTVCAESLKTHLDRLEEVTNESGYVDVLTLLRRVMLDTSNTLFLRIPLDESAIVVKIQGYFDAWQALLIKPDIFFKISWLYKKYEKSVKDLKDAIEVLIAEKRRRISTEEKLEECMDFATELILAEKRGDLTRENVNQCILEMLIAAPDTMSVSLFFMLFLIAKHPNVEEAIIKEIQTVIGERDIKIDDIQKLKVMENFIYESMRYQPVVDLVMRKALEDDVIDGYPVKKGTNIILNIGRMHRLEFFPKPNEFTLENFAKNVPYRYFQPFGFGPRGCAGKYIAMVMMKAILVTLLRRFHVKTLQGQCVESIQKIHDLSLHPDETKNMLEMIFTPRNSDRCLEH
Experimental: Aromatase inhibition by the compounds of the present invention was determined, e.g., both in vitro (human placental aromatase) and in vivo (ovarian aromatase activity) in rats.
(a) Aromatase inhibition in vitro
as §1

[4] = Resistance to hepatic metabolization; settings: oral route

Row | SMILES | Conjugation after oral administration [1] | % Aromatase inhibition at 30 mg/kg p.o. [2] | In vivo effectiveness by oral route [2] | IC50 [3] | Aromatase inhibition in vivo ([2]; in vivo) | In vivo activity compared to androsta-1,4-dien-3,17-dione ([2]; in vivo) | Potency relative to androsta-1,4-dien-3,17-dione ([2]; stated as in vivo) | Potency relative to Δ^1-testololactone (times more potent) ([2]; stated as in vivo) | Resistance to hepatic metabolization [4] | Relative potency (versus 4-OH-A) [3] | Aromatase inhibition in vitro ([3]; in vitro) | In vitro potency relative to 4-OH-A ([3]; in vitro)
1 | C[C@]12CCC(=O)C(O)=C1CC[C@@H]1[C@@H]2CC[C@]2(C)C(=O)CC[C@@H]12 [Example 4-OH-A, 4-hydroxyandrost-4-en-3,17-dione, reference compound] | extensively conjugated after oral administration | inactive | ineffective | 0.044 µM | – | – | – | – | – | – | – | –
2 | C[C@]12CCC(=O)C(N)=C1C=C[C@@H]1[C@@H]2CC[C@]2(C)C(=O)CC[C@@H]12 [FCE 24210, 4-aminoandrosta-4,6-dien-3,17-dione] | – | 70% | very effective when administered in vivo by oral route | 0.148 µM | very potent aromatase inhibitors both in vitro and in vivo | very superior to that of androsta-1,4-dien-3,17-dione | about equipotent as androsta-1,4-dien-3,17-dione | about 55 times | unusual resistance to hepatic metabolization | 0.30 | very potent aromatase inhibitors both in vitro and in vivo | about three times lower than that of 4-OH-A
3 | C[C@]12C=CC(=O)C=C1CC[C@@H]1[C@@H]2CC[C@]2(C)C(=O)CC[C@@H]12 [androsta-1,4-dien-3,17-dione, reference compound] | – | 37% | – | – | – | – | – | – | – | – | – | –
4 | C[C@]12C=CC(=O)C=C1CC[C@@H]1[C@@H]2CC[C@]2(C)OC(=O)CC[C@@H]12 [Δ^1 -testololactone, reference compound] | – | inactive | – | 8.24 µM | – | – | – | – | – | 0.005 | – | –
